# According to patent US20260335279A1, “METHODS OF TREATING ISCHEMIA-REPERFUSION INJURIES” (University of Cincinnati, priority 2022, published 2026):
# Assays:
# Glut4 = Glut4 mRNA after I/R; format: in vivo, mouse; conditions: ML-264 treatment; vs I/R group treated with vehicle
# Method: (§1) The myocardial ischemia/reperfusion surgical protocol was applied as follows. Mice were anesthetized with 2% isoflurane inhalation until anesthesia was achieved. The animals' body temperature was maintained at 37 °C throughout the surgical procedure using a heating pad. A tracheal tube was placed via tracheal intubation and the respiration rate was set at 150 strokes/min with a tidal volume of 200 μL, using Minivent ventilator for mice (Model 845, Harvard Apparatus). A 1.2 cm incision was made over the left chest. After retraction of the pectoral major and minor muscles, the fourth intercostal space was exposed. […] The mouse was then monitored during the recovery period, which was generally completed within 3 to 5 minutes. […]
# (§2) Total RNA was purified from heart tissue using the TRIzol reagent according to the instructions of the manufacturer (ThermoFischer Scientific, Cat. No.: 15596018). cDNA synthesis was performed using the Applied Biosystems High Capacity cDNA Reverse Transcription Kit (ThermoFischer Scientific, Cat. No.: 4368814) from 500 ng RNA, which had been treated with DNAase I (ThermoFischer Scientific, Cat. No.: 18068015). Quantitative real-time PCR was performed with the SYBR Select Master Mix (ThermoFischer Scientific, Cat. No.: 4472903) using the manufacturer's recommendations. […]
# KLF5 = KLF5 suppression, mRNA (quantitative real-time PCR) in cardiac tissue, I/R mice; format: in vivo, mouse (C57BL/6)
# Method: as §1, §2
# Glut1 = assay: GLUT1 protein levels after I/R; format: in vivo, mouse; conditions: ML-264 treatment; did not reach statistical significance
# Method: as §1
# Isolated myocardial tissue/isolated primary murine cardiomyocytes were homogenized in radioimmunoprecipitation assay buffer (RIPA buffer) containing protease and phosphatase inhibitors (Thermo Fischer Scientific, Cat. No.: A32959). […] Relative densitometry was determined, and the β-actin protein was used as a loading control.
# Finally, to test the potential involvement of GLUT1 and GLUT4 in myocardial ischemia-reperfusion injury, two compounds, namely KL-11743, a non-specific GLUT inhibitor, as well as STF-31, which is a GLUT1-specific inhibitor, were evaluated.
# [1] = test system: myocardial ischemia-reperfusion injury in mice; assay: Speckle tracking echocardiography in murine myocardial ischemia-reperfusion injury; format: in vivo, mouse (C57BL/6); conditions: 30 min ischemia, 24 h reperfusion; 25 mg/kg/12 h intraperitoneal; vs vehicle
# Method: Cardiac function was assessed by transthoracic echocardiography using the VisualSonics Vevo F2 system (VisualSonics, Toronto, ON). Sedation was induced by 3% isoflurane and maintained at 0.5% isoflurane during the procedure, during which the animals were placed on a heated table under a lamp at approximately 37 °C. Parasternal long axis (PSLAX) and short axis (SAX) images were recorded and then analyzed on a separate workstation with VevoLab software (Vevo 2100, v1.6, Visualsonic, Toronto, Canada). From the M-mode images, left ventricular cavity size for systole and diastole (LV dia;s, LV dia;d, LV Vol;s and LV Vol;d) were measured. Heart rate (HR), stroke volume (SV), and the echocardiographic calculation for fractional shortening (FS), ejection fraction (EF) and cardiac output (CO) were obtained using the Vevo software. Treatment and control groups were analyzed on the same day by the same technician in order to minimize variation. For VevoStrain analysis, B-mode images of 300 frames at greater than 200 frames/second were used.
# The myocardial ischemia/reperfusion surgical protocol was applied as follows. Mice were anesthetized with 2% isoflurane inhalation until anesthesia was achieved. The animals' body temperature was maintained at 37 °C throughout the surgical procedure using a heating pad. A tracheal tube was placed via tracheal intubation and the respiration rate was set at 150 strokes/min with a tidal volume of 200 μL, using Minivent ventilator for mice (Model 845, Harvard Apparatus). A 1.2 cm incision was made over the left chest. After retraction of the pectoral major and minor muscles, the fourth intercostal space was exposed. […] The left anterior descending coronary artery (LAD) was then located, sutured, and ligated at a site 3-4 mm distal to the origin of the artery under the left atrium using a 6-0 silk suture. The heart was allowed to stabilize for 15 min and right after, ischemia was induced by tightening the suture against a small piece of polyethylene tube. At the end of the 30-minute ischemia period, the ligature was released for the induction of reperfusion, and then the manual evacuation of air and closure of muscle and skin were performed. The mouse was then monitored during the recovery period, which was generally completed within 3 to 5 minutes. Sustain-released buprenorphine (BupSR, 0.5 mg/kg body weight) was provided by subcutaneous injection. Mice were then left to recover until the end of the reperfusion (2 hours, 12 hours, 24 hours, or 4 weeks). The sham group underwent the same surgical procedure except that the LAD was not occluded.
# To explore whether KLF5 inhibition holds therapeutic potential against myocardial I/R injury, WT mice were subjected to 30 minutes of ischemia, followed by 24 hours of reperfusion while being treated with a pharmacological KLF5 inhibitor, namely ML264. ML264 (25 mg/kg/12 h) was dissolved in 10% DMSO, 10% Tween 80, and 80% normal saline, and was administered by intraperitoneal injection in mice.
# A first dose of ML264 was administered five minutes before the reopening of the coronary artery, due to the clinical application that this time point holds, as well as previous reports about the importance of this time point regarding the pharmacological possibilities for the cardioprotection against I/R injury. 2D echocardiography was performed after 24 hours of reperfusion.
# Col1a1 = Col1a1 mRNA in chronic model of I/R injury (real-time PCR); format: in vivo, mouse (C57BL/6); conditions: 4 weeks post-I/R; vs IR group treated with vehicle
# Method: as §1, §2
# IL-6 = IL-6 mRNA in ischemic myocardium; format: in vivo, mouse (C57BL/6); conditions: evaluated at 2 h and 24 h of reperfusion, vs vehicle
# Method: as §1, §2
smiles,measurement,setting,value
CN(C(=O)CNC(=O)/C=C/c1cccc(Cl)c1)C1CCS(=O)(=O)CC1 [ML264],Glut4 mRNA levels,Glut4,significant suppression
same,KLF5 mRNA levels (4 weeks),"KLF5; 4 weeks post-ischemia-reperfusion, among the four groups",unchanged
same,KLF5 mRNA expression level in cardiac tissue,"KLF5; 30 minutes of ischemia, ML264 25 mg/kg/12 h intraperitoneal",suppression was confirmed
same,GLUT1 protein levels,Glut1,trend towards suppression
same,global circumferential strain,[1],significant increase
same,lateral wall circumferential strain,[1],significant increase
same,lateral wall circumferential strain rate,[1],significant increase
same,lateral wall radial strain,[1],significant increase
same,lateral wall radial strain rate,[1],significant increase
same,mRNA levels of Col1a1,Col1a1,decreased
same,IL-6 mRNA levels,IL-6,Significant suppression
